Reference: publication PMC12705620 (Frontiers in Pharmacology, 2025)
Bridge positions count the residues as written; N and C are the ends. Square brackets hold non-standard residues; d marks the D form. Peptide text beside a SMILES is read from it. I, II: the chains in the order shown. Dap = NC[C@H](N)C(=O)O; Ahx = NCCCCCC(=O)O

Experiments:
[1] = system: Staphylococcus aureus JAR060131; type: cell-based; settings: JAR060131, 18 h
Description: (§1) Bactericidal activity was assessed as previously described ([Breij et al., 2018]). Briefly, mid-logarithmic phase bacterial cultures were diluted in RPMI to 1 × 10^7 CFU/mL. For fungicidal assays, fungal cultures were prepared in RPMI supplemented with 1% glucose (Merck) and diluted to 2–5 × 10^5 CFU/mL. For each condition, 10 µL of the suspension was added to 90 µL of peptide-containing RPMI or RPMI supplemented with 50% (v/v) pooled human plasma (hereafter referred to as 50% plasma; final bacterial concentration 1 × 10^6 CFU/mL, final fungal concentration 2–5 × 10^4 CFU/mL. Human plasma from four healthy volunteers (Sanquin, Netherlands) was pooled, and stored at −20 °C until use. Peptides were tested similarly for fungicidal activity, after 18 h of incubation at 37 °C with shaking (120 rpm) under humidified conditions, bacterial and fungal survival was determined by plating 10 µL aliquots onto BA plates. Assays were performed in duplicate in round-bottom polypropylene microtiter plates (Costar) and repeated independently three times. Untreated controls included bacteria exposed to RPMI alone or RPMI with 50% plasma. Bactericidal and fungicidal activity was expressed as the lethal concentration 99.9% (LC99.9), defined as the lowest peptide concentration causing ≥99.9% reduction in numbers of CFU compared to the initial inoculum.

[2] = system: TNF-α production by dTHP-1 macrophages stimulated with UV-inactivated S. aureus JAR060131; assay: Endotoxin neutralization, UV-inactivated S. aureus-stimulated macrophages; type: cell-based; settings: MOI 2 with 1 or 2 µM peptide, 4 h, ELISA, versus NT
Description: (§2) The endotoxin-neutralizing capacity of the peptides was assessed by measuring tumor necrosis factor-alpha (TNF-α) production by dTHP-1 macrophages. dTHP-1 macrophages were stimulated with either lipopolysaccharide (LPS; E. coli O111:B4; 5 ng/mL, Sigma-Aldrich) or UV-inactivated S. aureus JAR060131 (MOI 2; as described in Section 5.2), in the presence or absence of one or 2 µM peptides. Cells were cultured in serum-free RPMI and incubated for 4 h at 37 °C with 5% CO2. Positive controls consisted of cells stimulated with LPS or UV-S. aureus without peptide treatment (no treatment, NT), and unstimulated cells served as negative controls. After stimulation, cell supernatants were collected, and cytokine levels of TNF-α were quantified using human ELISA kits (R&D Systems, USA) according to the manufacturer’s instructions. Each condition was tested in triplicate.

HaCaT keratinocytes = assay: In vitro scratch wound assay; type: cell-based, human; settings: 1 µM peptide (TGF-β 20 ng/mL); for Percentage of wound closure: 60 h (legend: 64 h); for Percentage of wound closure / Rate of cell migration: versus no treatment
Description: Cell migration following injury was assessed using an in vitro scratch assay with the IncuCyte wound maker tool (Sartorius). HaCaT keratinocytes were seeded in 96-well ImageLock plates (Sartorius) at 3 × 10^5 cells/well (100 µL) in DMEM supplemented with 10% FBS and incubated at 37 °C, 5% CO2 for 48 h, with medium change at 24 h, until confluence. Uniform scratches were introduced using the wound maker tool according to the manufacturer’s instructions. After wounding, wells were washed twice with 100 µL PBS to remove cell debris. Cells were then treated with 1 µM peptides in serum-free DMEM, to focus specifically on cell migration from the wound edges. The absence of serum minimizes interference with peptide activity. Transforming growth factor-beta (TGF-β; human; 20 ng/mL; Sigma-Aldrich) and 5% dimethyl sulfoxide (DMSO; Sigma-Aldrich) were used as positive and negative controls, respectively. Additional controls included serum-free DMEM (no-treatment control) and 50% (v/v) acetonitrile in Milli-Q water as solvent control. Wound closure was monitored using the IncuCyte S3 live-cell imaging system (Sartorius) with bright-field microscopy. Images were captured every 6 h for up to 60 h. Image analysis was performed using ImageJ software (version 1.53t, NIH, USA) with the “Wound Healing” plugin, as described by Suarez Arnedo et al. ([Suarez-Arnedo et al., 2020]). Quantitative parameters included wound width (µm), percent wound closure, and migration rate (µm/hour).

[3] = system: TNF-α production by dTHP-1 macrophages stimulated with LPS (E. coli O111:B4); assay: Endotoxin neutralization, LPS-stimulated macrophages; type: cell-based, human; settings: LPS 5 ng/mL with 1 or 2 µM peptide, 4 h, serum-free RPMI, ELISA, versus NT
Description: as §2

[4] = system: primary human venous endothelial cells (HUVECs); assay: In vitro angiogenesis (tube formation) assay; type: cell-based; settings: 4 h; for Number of tubular networks formed: 1 µM peptide, Matrigel, versus untreated control
Description: Primary human venous endothelial cells (HUVECs; CSC 2V0) were used to evaluate the in vitro angiogenic potential of peptides using a tube formation assay, adapted from Arnaoutova and Kleinman ([Arnaoutova and Kleinman, 2010]). Cells were cultured in low-serum endothelial cell growth medium 2 (2% v/v; Promo Cell). Briefly, 96-well plates were coated with 50 µL/well of phenol red-free, growth factor-reduced basement membrane matrix (Matrigel; Corning), and incubated at 37 °C for 1 h to allow gelation. […] Then, 100 µL of cell suspension (1.5 × 10^4 cells/well) was added to the Matrigel-coated wells in triplicate and incubated at 37 °C, 5% CO2 for 8 h. Tube formation was monitored using the IncuCyte S3 live-cell imaging system (Sartorius) with bright-field microscopy. Images were captured hourly, and the 4-h time point (corresponding to optimal tube formation) was used for analysis. The number of capillary-like structures was quantified using the “Angiogenesis Analyzer” plugin in ImageJ ([Carpentier et al., 2020]). Each peptide condition was tested in triplicate and repeated three times using different Matrigel batches to account for batch-to-batch variability.

[5] = system: Enterococcus faecium LUH15122; type: cell-based; settings: LUH15122, 18 h
Description: as §1

[6] = system: TNF-α production by unstimulated dTHP-1 macrophages; assay: TNFα induction by peptides alone in macrophages; type: cell-based, human; settings: 2 µM peptide, 4 h, no endotoxin stimulation, versus unstimulated cells
Description: as §2

Structure (SMILES) | LC99.9 [1] | Reduction of TNFα production induced by UV-inactivated S. aureus [2] | Percentage of wound closure (HaCaT keratinocytes) | Wound width reduction (HaCaT keratinocytes; serum-free DMEM, versus untreated control) | Rate of cell migration (HaCaT keratinocytes) | Reduction of LPS-induced TNFα levels [3] | Number of tubular networks formed [4] | LC99.9 [5] | TNFα induction by peptide alone [6] | Concentration at which tube formation peaked ([4]; concentration series 0.5–3 µM) | Tube formation at 3 µM ([4]; concentration series 0.5–3 µM)
N=C(N)NCCC[C@H](NC(=O)[C@H](Cc1c[nH]c2ccccc12)NC(=O)[C@H](CCC(N)=O)NC(=O)[C@H](Cc1c[nH]c2ccccc12)NC(=O)[C@H](CCCNC(=N)N)NC(=O)[C@@H](N)CCCNC(=N)N)C(=O)NCCCC[C@H](NC(=O)[C@H](CCCNC(=N)N)NC(=O)[C@H](Cc1c[nH]c2ccccc12)NC(=O)[C@H](CCC(N)=O)NC(=O)[C@H](Cc1c[nH]c2ccccc12)NC(=O)[C@H](CCCNC(=N)N)NC(=O)[C@@H](N)CCCNC(=N)N)C(=O)NCCCCCC(=O)N[C@@H](CSSC[C@H](NC(=O)CCCCCNC(=O)[C@H](CCCCNC(=O)[C@H](CCCNC(=N)N)NC(=O)[C@H](Cc1c[nH]c2ccccc12)NC(=O)[C@H](CCC(N)=O)NC(=O)[C@H](Cc1c[nH]c2ccccc12)NC(=O)[C@H](CCCNC(=N)N)NC(=O)[C@@H](N)CCCNC(=N)N)NC(=O)[C@H](CCCNC(=N)N)NC(=O)[C@H](Cc1c[nH]c2ccccc12)NC(=O)[C@H](CCC(N)=O)NC(=O)[C@H](Cc1c[nH]c2ccccc12)NC(=O)[C@H](CCCNC(=N)N)NC(=O)[C@@H](N)CCCNC(=N)N)C(N)=O)C(N)=O [LBT] (I: H-RRWQWRK[Ahx]C-NH2 / II: H-RRWQWRK[Ahx]C-NH2 / III: H-RRWQWR / IV: H-RRWQWR; amide I:7-III:C, II:7-IV:C; disulfide I:9-II:9; N-terminus and C-terminus assumed) | 0.47 µM | not observed | significant wound closure | significantly reduced wound width | highest migration (p < 0.05) | effectively neutralize | enhanced tube formation | – | – | – | –
N=C(N)NCCC[C@H](NC(=O)[C@H](Cc1c[nH]c2ccccc12)NC(=O)[C@H](CCC(N)=O)NC(=O)[C@H](Cc1c[nH]c2ccccc12)NC(=O)[C@H](CCCNC(=N)N)NC(=O)[C@@H](N)CCCNC(=N)N)C(=O)NC[C@H](NC(=O)[C@H](CCCNC(=N)N)NC(=O)[C@H](Cc1c[nH]c2ccccc12)NC(=O)[C@H](CCC(N)=O)NC(=O)[C@H](Cc1c[nH]c2ccccc12)NC(=O)[C@H](CCCNC(=N)N)NC(=O)[C@@H](N)CCCNC(=N)N)C(=O)NCCCCCC(=O)N[C@@H](CSSC[C@H](NC(=O)CCCCCNC(=O)[C@H](CNC(=O)[C@H](CCCNC(=N)N)NC(=O)[C@H](Cc1c[nH]c2ccccc12)NC(=O)[C@H](CCC(N)=O)NC(=O)[C@H](Cc1c[nH]c2ccccc12)NC(=O)[C@H](CCCNC(=N)N)NC(=O)[C@@H](N)CCCNC(=N)N)NC(=O)[C@H](CCCNC(=N)N)NC(=O)[C@H](Cc1c[nH]c2ccccc12)NC(=O)[C@H](CCC(N)=O)NC(=O)[C@H](Cc1c[nH]c2ccccc12)NC(=O)[C@H](CCCNC(=N)N)NC(=O)[C@@H](N)CCCNC(=N)N)C(N)=O)C(N)=O [LBT-1] (I: H-RRWQWR[Dap][Ahx]C-NH2 / II: H-RRWQWR[Dap][Ahx]C-NH2 / III: H-RRWQWR / IV: H-RRWQWR; amide I:7-III:C, II:7-IV:C; disulfide I:9-II:9; N-terminus and C-terminus assumed) | 0.47 µM | not observed | significant wound closure | – | ns | effectively neutralize | significantly increasing the number of networks | 0.94 µM | minimal but significant | 2 µM | declined
